{
  "source": "patent EP1285919A1",
  "about": "“C10 Carbonate substituted taxanes as antitumor agents” (Florida State University Research Foundation, Inc., priority 2001, dated 2003)",
  "key": {"[1]": {"tested_on": "HCT116", "test": "In vitro cytotoxicity, cell colony formation assay", "type": "cell-based", "settings": "read-out: IN VITRO ID 50", "method": "In Vitro cytotoxicity measured by the cell colony formation assay\nFour hundred cells (HCT116) were plated in 60 mm Petri dishes containing 2.7 mL of medium (modified McCoy's 5a medium containing 10% fetal bovine serum and 100 units/mL penicillin and […] streptomycin). The cells were incubated in a CO2 incubator at 37 °C for 5 h for attachment to the bottom of Petri dishes. The compounds identified in Example 2 were made up fresh in medium at ten times the final concentration, and then 0.3 mL of this stock solution was added to the 2.7 mL of medium in the dish. The cells were then incubated with drugs for 72 h at 37 ° C. At the end of incubation the drug-containing media were decanted, the dishes were rinsed with 4 mL of Hank's Balance Salt Solution (HBSS), 5 mL of fresh medium was added, and the dishes were returned to the incubator for colony formation. The cell colonies were counted using a colony counter after incubation for 7 days."}, "[2]": {"tested_on": "SK-MES carcinoma", "method": "(§1) In Vivo Evaluation of Antitumor Compounds Against Human Lung Carcinoma Xenografts\n(§2) The compounds were prepared in the manner as described for Solution 2 of Example 10. Taxol (paclitaxel, Bristol Meyers Squibb), used as a control, was obtained as the marketed pharmaceutical drug.\n(§3) Taxol itself was given as a split i.v. dose of 36 mg/kg, with the two 18 mg/kg doses separated by one hour. Vehicle control animals were dosed twice intravenously with half the total volume being given separated by one hour. The study was terminated on Day 60.\n(§4) The results are summarized in Table 1 and include mean days of survival (MDS), number of toxic deaths, number of survivors, number of complete or partial responses, and number with stable disease. The mean days of survival is the number of days after which a SKMES neoplasm reached a size of 1.5 g and the animal was euthanized. A complete response is obtained if the tumor is not palpable at the end of the study. A partial response is obtained if the tumor shrinks to a size smaller than its size on Day 1 of the study.\n(§5) A tumor scoring system was designed to provide a more quantitative ranking of efficacy (therapeutic potential) among the antitumor agents evaluated against the different human solid tumor xenografts. Each mouse in a study was given a score of from 1 to 10 at the end of the study. The scores can be summarized as follows:\n(§6) The individual score for each mouse was averaged into a mean score for each treatment group. […]"}, "[3]": {"tested_on": "NCI-H1299 (H1299) carcinoma", "method": "as §1, §2, §3, §4, §5, §6\nThe treatment protocol for the H1299 test was identical to the SK-MES test protocol. […]"}, "[4]": {"tested_on": "SKMES Human Lung Carcinoma Xenograft", "method": "The compound was administered as a single bolus by the oral route in a study to investigate the efficacy of this compound against the SKMES human lung cancer xenograft.\nFemale Nu/Nu mice (6-8 weeks of age; implanted with 1 mm^3 SKMES lung carcinoma fragments in the flank) were sorted into four treatment groups of six mice each. SKMES size ranges and group mean SKMES size ranges were 126-448 mg and 238-241 mg, respectively. […] Treatments were administered as a single oral bolus on Day 1, and the study was terminated on Day 60.\nas §4, with “Table 13” for “Table 1”, “of 2.0” for “of 1.5”\nThe total response rate was 100% with four complete responses and two partial responses. The total response rate is defined as the percentage of evaluable animals (excluding deaths due to procedure or toxicity) in a group that experience complete or partial responses at the termination of the study."}, "[5]": {"tested_on": "A2780 Human Ovarian Carcinoma Xenografts", "test": "In vivo evaluation against A2780 ovarian carcinoma xenografts", "parameters": "species or system NCr-nude mice", "method": "In Vivo Evaluation of Antitumor Compounds Against A2780 Human Ovarian Carcinoma Xenografts\nThe A2780 group mean size range was 237-243 mg. Dosing was initiated on Day 1. […] Treatment groups are detailed in Table 5."}, "[6]": {"tested_on": "A375 Human Melanoma Xenografts", "test": "In vivo evaluation against A375 melanoma xenografts", "method": "In Vivo Evaluation of Antitumor Compounds Against A375 Human Melanoma Xenografts\nAntitumor compounds were prepared in a vehicle of 5% ethanol, 5% Cremophor and 90% isotonic saline in the manner as described for Solution 1 of Example 10. Taxol (paclitaxel; Bristol Meyers Squibb) and Taxotere (docetaxel; Rhône-Poulenc Rorer) were obtained as the marketed pharmaceutical drugs. The dosing volume was 0.3 ml per 20 g mouse.\nFemale NCr-nude mice were implanted subcutaneously with 1 mm^3 A375 melanoma fragments in the flank were sorted into treatment groups of six mice each, except the Taxotere treatment group which was a group of seven mice. […] Dosing was initiated on Day 1. The antitumor compounds were given i.v. at an estimated maximum tolerated dose (MTD) appropriate for each agent on a qd x 1 schedule (single administration of compound). The i.v. taxol was given on the qd x 1 schedule as two split doses (one hour between) of 12 mg/kg per split dose (total dose = 24 mg/kg). Taxol was also administered i.p. on a qd x 5 schedule at a daily dose of 18 mg/kg. Taxotere was given i.v. on a qd x 1 schedule at a dose of 70 mg/kg. The vehicle was administered i.v. to control mice in Group 1 on the qd x 1 schedule. The study was terminated on Day 60. Treatment groups are detailed in Table 7.\nas §4, with “Table 8” for “Table 1”, “a” for “a SKMES”, “of 2.0” for “of 1.5”, “complete” for “complete response is obtained if the tumor is not palpable at the end of the study. A partial”"}, "[7]": {"tested_on": "VM46 Human Colon Carcinoma", "test": "In vivo evaluation against VM46 colon carcinoma xenografts", "parameters": "species or system NCr-nude mice", "method": "In Vivo Evaluation of Antitumor Compounds Against VM46 Human Colon Carcinoma\nThe VM46 tumor group mean size range was 181-188 mg. Dosing was initiated on Day 1. […] Taxotere was given i.v. at a dose of 70 mg/kg on a qd x 1 schedule. […] The study was terminated on Day 64. Treatment groups are detailed in Table 11."}, "[8]": {"settings": "HCT116, 72 h with drug, colonies counted after 7 days, concentration producing 50% inhibition of colony formation"}, "[9]": {"settings": "number of mice of six, i.v. split dose qd x 1, Taxol 36 mg/kg, 1755 49 mg/kg"}, "[10]": {"settings": "1755 49 mg/kg single oral bolus, six mice"}, "[11]": {"settings": "Group 4: 49 mg/kg single oral bolus Day 1, 6 mice, study to Day 60"}, "[12]": {"settings": "Group 5: 70 mg/kg i.v. qd x 1, group of six mice, study to Day 60"}, "[13]": {"settings": "i.v. qd x 1, Taxol 24 mg/kg, Taxotere 70 mg/kg"}, "[14]": {"settings": "i.v. qd x 1, Taxol 24 mg/kg, Taxotere 70 mg/kg, 2.0 g cut-off"}, "[15]": {"settings": "Group 5: 70 mg/kg i.v. qd x 1, 7 mice, study to Day 60"}, "[16]": {"settings": "Group 5: 70 mg/kg i.v. qd x 1, 6 mice, study to Day 64"}},
  "note": "Read-outs that look alike come from different tables or passages of the source.",
  "data": [
    {"smiles": "CCOC(=O)OC1C(=O)C2(C)C(O)CC3OCC3(OC(C)=O)C2C(OC(=O)c2ccccc2)C2(O)CC(OC(=O)C(O)C(NC(=O)OC(C)(C)C)c3cccs3)C(C)=C1C2(C)C", "note": "(stereo not shown) [Compound 1755, 3'-Desphenyl-3'-(2-thienyl)-10-ethoxycarbonyl-10-deacetyl taxotere]", "values": [
      {"measurement": "IC50", "setting": "[1]; [8]", "result": "< 1", "unit": "nM"},
      {"measurement": "tolerability", "setting": "[2]; 1755 49 mg/kg i.v.", "result": "well tolerated"},
      {"measurement": "Toxic Deaths", "setting": "[2]; [9]", "result": 0},
      {"measurement": "Survivors", "setting": "[2]; number of mice of six, study ended Day 60", "result": 6},
      {"measurement": "Stable Disease", "setting": "[2]; number of mice of six, tumor below 1.5 g at end of study", "result": 1},
      {"measurement": "Partial Response", "setting": "[2]; number of mice of six, tumor smaller than on Day 1", "result": 0},
      {"measurement": "Mean Score", "setting": "[2]; tumor score 1 to 10 per mouse, averaged per group (10 = complete response)", "result": "9.2 ± 0.8"},
      {"measurement": "Partial Response", "setting": "[3]; number of mice of six", "result": 0},
      {"measurement": "Stable Disease", "setting": "[3]; number of mice of six", "result": 1},
      {"measurement": "Survivors", "setting": "[3]; number of mice of six", "result": 4},
      {"measurement": "Toxic Deaths", "setting": "[3]; [9]", "result": 2},
      {"measurement": "Mean Score", "setting": "[3]; tumor score 1 to 10 per mouse, averaged per group", "result": "5.8 ± 2"},
      {"measurement": "total response rate", "setting": "[4]; 1755 49 mg/kg single oral bolus Day 1, six mice, study ended Day 60", "result": 100, "unit": "%"},
      {"measurement": "complete responses", "setting": "[4]; [10]", "result": "four"},
      {"measurement": "partial responses", "setting": "[4]; [10]", "result": "two"},
      {"measurement": "% Total Response", "setting": "[4]; [11]", "result": 100, "unit": "%"},
      {"measurement": "Complete Response", "setting": "[4]; [11]", "result": 4},
      {"measurement": "Partial Response", "setting": "[4]; [11]", "result": 2},
      {"measurement": "Stable Disease", "setting": "[4]; [11]", "result": 0},
      {"measurement": "Survivors", "setting": "[4]; [11]", "result": 6},
      {"measurement": "Toxic Deaths", "setting": "[4]; [11]", "result": 0}
    ]},
    {"smiles": "CCOC(=O)OC1C(=O)C2(C)C(O)CC3OCC3(OC(C)=O)C2C(OC(=O)c2ccccc2)C2(O)CC(OC(=O)C(O)C(NC(=O)OC(C)(C)C)C3CC3)C(C)=C1C2(C)C", "note": "(stereo not shown) [Compound 5171]", "values": [
      {"measurement": "IC50", "setting": "[1]; [8]", "result": "< 1", "unit": "nM"}
    ]},
    {"smiles": "CCOC(=O)OC1C(=O)C2(C)C(O)CC3OCC3(OC(C)=O)C2C(OC(=O)c2ccccc2)C2(O)CC(OC(=O)C(O)C(NC(=O)C(C)C)c3ccco3)C(C)=C1C2(C)C", "note": "(stereo not shown) [Compound 6466]", "values": [
      {"measurement": "IC50", "setting": "[1]; [8]", "result": "< 10", "unit": "nM"}
    ]},
    {"smiles": "CC(=O)O[C@@]12CO[C@@H]1C[C@H](O)[C@@]1(C)C(=O)[C@H](O)C3=C(C)[C@@H](OC(=O)[C@H](O)[C@@H](NC(=O)OC(C)(C)C)c4ccccc4)C[C@@](O)([C@@H](OC(=O)c4ccccc4)[C@H]21)C3(C)C", "note": "[Docetaxel, docetaxel]", "values": [
      {"measurement": "IC50", "setting": "[1]; Homo sapiens, HCT-116", "result": 0.6, "unit": "nM"},
      {"measurement": "MDS (n)", "setting": "[5]; Group 5: 70 mg/kg i.v. qd x 1, group of six mice, n=5, 2.0 g endpoint, study to Day 60", "result": "27.4 ± 3.5 (5) days"},
      {"measurement": "Complete Response", "setting": "[5]; [12]", "result": 0},
      {"measurement": "Mean Score", "setting": "[5]; [12]", "result": "2.5 ± 0.3"},
      {"measurement": "Partial Response", "setting": "[5]; [12]", "result": 0},
      {"measurement": "Stable Disease", "setting": "[5]; [12]", "result": 0},
      {"measurement": "Survivors", "setting": "[5]; [12]", "result": 0},
      {"measurement": "Toxic Deaths", "setting": "[5]; [12]", "result": 0},
      {"measurement": "increase in survival / survival extension compared to Group 1 controls", "setting": "[5]; [13]", "result": 134, "unit": "%"},
      {"measurement": "MDS", "setting": "[5]; [14]", "result": 27.4, "unit": "days"},
      {"measurement": "MDS (n)", "setting": "[6]; Group 5: 70 mg/kg i.v. qd x 1, 7 mice, n=7, 2.0 g endpoint, study to Day 60", "result": "21.5 ± 0.5(7) days"},
      {"measurement": "Complete Response", "setting": "[6]; [15]", "result": 0},
      {"measurement": "Mean Score", "setting": "[6]; [15]", "result": "2 ± 0"},
      {"measurement": "Partial Response", "setting": "[6]; [15]", "result": 0},
      {"measurement": "Stable Disease", "setting": "[6]; [15]", "result": 0},
      {"measurement": "Survivors", "setting": "[6]; [15]", "result": 0},
      {"measurement": "Toxic Deaths", "setting": "[6]; [15]", "result": 0},
      {"measurement": "survival extension compared to Group 1 controls", "setting": "[6]; [13]", "result": 49, "unit": "%"},
      {"measurement": "MDS", "setting": "[6]; [14]", "result": 21.5, "unit": "days"},
      {"measurement": "MDS (n)", "setting": "[7]; Group 5: 70 mg/kg i.v. qd x 1, 6 mice, n=6, 1.5 g endpoint, study to Day 64", "result": "45.3 ± 3.6(6) days"},
      {"measurement": "Complete Response", "setting": "[7]; [16]", "result": 0},
      {"measurement": "Mean Score", "setting": "[7]; [16]", "result": "2 ± 0"},
      {"measurement": "Partial Response", "setting": "[7]; [16]", "result": 0},
      {"measurement": "Stable Disease", "setting": "[7]; [16]", "result": 0},
      {"measurement": "Toxic Deaths", "setting": "[7]; [16]", "result": 0},
      {"measurement": "MDS", "setting": "[7]; i.v. qd x 1, Taxol 24 mg/kg (four mice), Taxotere 70 mg/kg, 1.5 g endpoint", "result": 45.3, "unit": "days"}
    ]}
  ]
}
